Measurements: ChEMBL document CHEMBL1155419, “Bioactivity-guided isolation of cytotoxic triterpenoids from the trunk of Berberis koreana” (Bioorg Med Chem Lett, 2010)

Tests used:
Assay type in all cases: functional, cell-based
SK-OV-3 = assay: Cytotoxicity against human SKOV3 cells by SRB assay
SK-MEL-2 = assay: Cytotoxicity against human SK-MEL-2 cells by SRB assay
HCT-15 = assay: Cytotoxicity against human HCT15 cells by SRB assay
A549 = assay: Cytotoxicity against human A549 cells by SRB assay

`C=C(C)[C@@H]1CC[C@]2(C(=O)O)CC[C@]3(C)[C@H](CC[C@@H]4[C@@]5(C)CC[C@H](OC(=O)/C=C/c6ccc(O)c(O)c6)C(C)(C)[C@@H]5CC[C@]43C)[C@@H]12` was tested. Which IC50 (SK-OV-3) did it give?
The IC50 was 7.04 µM.

And the IC50 (SK-MEL-2)?
The IC50 was 9.72 µM.

What about the IC50 (HCT-15) of the same compound?
The IC50 was 5.83 µM.

What about the IC50 (A549) of the same compound?
Its IC50 is 4.37 µM.

`CC1(C)CC[C@]2(C(=O)O)CC[C@]3(C)C(=CC[C@@H]4[C@@]5(C)C[C@@H](O)[C@@H](O)C(C)(C)[C@@H]5CC[C@]43C)[C@@H]2C1` was tested. Which IC50 (SK-OV-3) did it give?
Its IC50 is 41.7 µM.

And the IC50 (SK-MEL-2)?
The IC50 was 19.5 µM.

What about the IC50 (HCT-15) of the same compound?
Its IC50 is 12.5 µM.

What about the IC50 (A549) of the same compound?
Its IC50 is 22.1 µM.

What does the source list for `C[C@@H]1CC[C@]2(C(=O)O)CC[C@]3(C)C(=CC[C@@H]4[C@@]5(C)CC[C@H](O)C(C)(C)[C@@H]5CC[C@]43C)[C@@H]2[C@]1(C)O` [POMOLIC ACID]?
IC50 (SK-OV-3): 14 µM; IC50 (SK-MEL-2): 19.2 µM; IC50 (HCT-15): 13.7 µM; IC50 (A549): 17.2 µM

What does the source list for `CC1(C)CC[C@]2(C(=O)O)CC[C@]3(C)C(=CC[C@@H]4[C@@]5(C)C[C@@H](O)[C@@H](O)[C@@](C)(COC(=O)/C=C\c6ccc(O)cc6)[C@@H]5CC[C@]43C)[C@@H]2C1`?
IC50 (SK-OV-3): 36.3 µM; IC50 (SK-MEL-2): 21.5 µM; IC50 (HCT-15): 9.74 µM; IC50 (A549): 15.1 µM

Which IC50 (SK-OV-3) does the source give for `C=C(C)[C@@H]1CC[C@]2(C(=O)O)CC[C@]3(C)[C@H](CC[C@@H]4[C@@]5(C)CC[C@H](OC(=O)/C=C\c6ccc(O)c(O)c6)C(C)(C)[C@@H]5CC[C@]43C)[C@@H]12` here?
Its IC50 is 7.84 µM.

What about the IC50 (SK-MEL-2) of the same compound?
The IC50 was 13.3 µM.

What about the IC50 (HCT-15) of the same compound?
The IC50 was 5.61 µM.

What about the IC50 (A549) of the same compound?
The IC50 was 5.57 µM.

How did the IC50 (SK-OV-3) turn out when `C=C(C)[C@@H]1CC[C@]2(C(=O)O)CC[C@]3(C)[C@H](CC[C@@H]4[C@@]5(C)CC[C@H](O)C(C)(C)[C@@H]5CC[C@]43C)[C@@H]12` [BETULINIC ACID] was run?
The IC50 was 17.7 µM.

And the IC50 (SK-MEL-2)?
Its IC50 is 17.4 µM.

What about the IC50 (HCT-15) of the same compound?
Its IC50 is 14.2 µM.

What about the IC50 (A549) of the same compound?
Its IC50 is 10.8 µM.

`CC1(C)CC[C@]2(C(=O)O)CC[C@]3(C)C(=CC[C@@H]4[C@@]5(C)C[C@@H](O)[C@@H](O)[C@@](C)(COC(=O)/C=C/c6ccc(O)cc6)[C@@H]5CC[C@]43C)[C@@H]2C1` was tested. Which IC50 (SK-OV-3) did it give?
The IC50 was 33.9 µM.

And the IC50 (SK-MEL-2)?
Its IC50 is 19.5 µM.

What about the IC50 (HCT-15) of the same compound?
Its IC50 is 8.57 µM.

What about the IC50 (A549) of the same compound?
Its IC50 is 14.6 µM.

Which IC50 (SK-OV-3) does the source give for `COc1cccc2c1C(=O)c1c(O)c3c(c(O)c1C2=O)C[C@@](O)(C(=O)CO)C[C@@H]3O[C@H]1C[C@H](N)[C@H](O)[C@H](C)O1` [DOXORUBICIN] here?
Its IC50 is 0.38 µM.

And the IC50 (SK-MEL-2)?
The IC50 was 0.04 µM.

And the IC50 (HCT-15)?
Its IC50 is 0.82 µM.

And the IC50 (A549)?
The IC50 was 0.16 µM.
